Experimental data reported in paper PMC7018657, “Molecular Determinants of Substrate Selectivity of a Pneumococcal Rgg-Regulated Peptidase-Containing ABC Transporter” (mBio, 2020).

Key:
Type in all cases: cell-based, Streptococcus pneumoniae R6
Conditions in all cases: signal sequence (wild type or mutated) fused to BlpI-HiBiT cargo peptide; R6; CDM+; CSP, BlpC and RtgSA-C10 treatment; 3 independent experiments
ComAB = experiment: HiBiT peptide secretion assay, ComAB+ strain
Method: (§1) FIG 5 RtgAB secretes different GG peptides from ComAB and BlpAB. R6 ComAB^−/BlpAB^−/RtgAB^− and single-transporter-positive ComAB^+, BlpAB^+, and RtgAB^+ strains expressing RtgC-HiBiT (A), RtgG-HiBiT (B), or BlpI-HiBiT (C) were grown in CDM+ to an OD620 of 0.05 and treated with 200 ng/ml CSP, 200 ng/ml BlpC, and 20 nM RtgSA-C10. Samples were taken every 30 min, and extracellular HiBiT signal was quantified. Data are presented as fold change values relative to the ComAB^−/BlpAB^−/RtgAB^− control. Red dashed lines represent fold change = 1 (no difference versus the control). Plots show means ± SEs from 3 independent experiments.
(§2) Cells were inoculated from starter cultures to an OD620 of 0.005 and grown in CDM+. […] Samples were taken for HiBiT quantification at appropriate time points. […] HiBiT signal was quantified by mixing samples with HiBiT extracellular detection reagent (N2421; Promega) at a 1:1 ratio and reading luminescence with a Synergy HTX plate reader. Samples were also taken for quantification of intracellular peptide; for endpoint assays, they were taken concurrently with the extracellular samples, and for time course assays, they were taken at the last time point. Extracellular peptide was removed from these samples by proteinase K digestion, and then the cells were lysed and HiBiT signal was quantified as described above. […]
(§3) and read 5 min following reagent addition. […]

RtgAB = experiment: HiBiT peptide secretion assay, RtgAB+ strain
Method: FIG 3 RtgAB secretes RtgC and RtgG. R6 ComAB^−/BlpAB^−/RtgAB^− and ComAB^−/BlpAB^−/RtgAB^+ strains expressing RtgC-HiBiT (A) or RtgG-HiBiT (B) were grown in CDM+ to an OD620 of 0.05 and treated with 200 ng/ml CSP, 200 ng/ml BlpC, and 20 nM RtgSA-C10. CSP and BlpC were added to allow for comparison with ComAB^+ and BlpAB^+ strains in later experiments. Samples were taken every 30 min, and extracellular HiBiT signal was quantified. Data are presented as fold change values relative to the ComAB^−/BlpAB^−/RtgAB^− control. Red dashed lines represent fold change = 1 (no difference versus the control). […]
FIG 5 RtgAB secretes different GG peptides from ComAB and BlpAB. […] Samples were taken every 30 min, and extracellular HiBiT signal was quantified. […]
Cells were inoculated from starter cultures to an OD620 of 0.005 and grown in CDM+. […] Samples were taken for HiBiT quantification at appropriate time points. […] HiBiT signal was quantified by mixing samples with HiBiT extracellular detection reagent (N2421; Promega) at a 1:1 ratio and reading luminescence with a Synergy HTX plate reader. Samples were also taken for quantification of intracellular peptide; for endpoint assays, they were taken concurrently with the extracellular samples, and for time course assays, they were taken at the last time point. […]
as §3

BlpAB = experiment: HiBiT peptide secretion assay, BlpAB+ strain
Method: as §1, §2, §3

MELILPNNYVDLEQEEMMYLDGG [SSRtgG]
secretion through ComAB, BlpI cargo peptide (ComAB): preventing its secretion through ComAB and BlpAB
secretion through RtgAB, BlpI cargo peptide (RtgAB): promotes secretion of the BlpI cargo peptide through RtgAB
secretion through BlpAB, BlpI cargo peptide (BlpAB): preventing its secretion through ComAB and BlpAB
